The values below are quoted from earlier work in patent publication US20080139483A1, “DRUG COMBINATION FOR HYPERTENSIVE DISORDERS” (priority 2006, published 2008).

One data set concerns patients with PAH. As to conditions: does not appear to be dose related.

Take `COC(c1ccccc1)(c1ccccc1)[C@H](Oc1nc(C)cc(C)n1)C(=O)O` [ambrisentan]: the potential liver toxicity result in the data set on patients with PAH is “low incidence and severity of potential liver toxicity”. In the data set on p450, the “drug interactions (p450 induction or inhibition)” value is “no p450 induction or inhibition”.
